Laboratory results published in patent US20260183320A1, “METHOD FOR TREATING CANCER BY COMBINING ALKYLATING AGENT PRODRUG AND CELL CYCLE INHIBITOR” (ASCENTAWITS PHARMACEUTICALS, LTD., priority 2022, published 2026).

Columns and labels:
[1] = tested on: H460 cell line; experiment: H460 cell line proliferation inhibition assay under normoxia and hypoxia (CTG); format: cell-based; conditions: for IC50: Homo sapiens, NCI-H460, H460
Description: (§1) 24-well plates with glass inserts were used in assays under hypoxia, and ordinary plastic 24-well plates were used in assays under normoxia. • 2) The cells were incubated overnight at 37° C. in an incubator with 5% CO2. • 3) Treatment with Compounds
(§2) A hypoxia workstation was tuned to create a hypoxic environment, and an oxygen indicator was used to confirm the hypoxia in the workstation.
(§3) After cell plating for 24 hours, the 24-well plates with glass inserts were transferred into the hypoxia workstation.
(§4) The 24-well plates were placed on a shaker, uncovered and shaken to allow air exchange for 5 min.
(§5) For each well for combination therapy, 5 or 10 μL of medium was removed and 5 μL of adavosertib (to a final concentration of 1 or 10 μM) or ceralasertib (to a final concentration of 200 or 2000 μM), followed by incubation for 2 h.
(§6) To each well, 5 or 10 μL of the compound was added at a 100× concentration. Three replicate wells were set up for each group.
(§7) Gentle shaking was carried out until homogeneous mixing of the compound, and the 24-well plates were incubated for 3 hours in the hypoxia workstation with their lids being half opened.
(§8) 24 hours after plating of the cells, for each well for combination therapy, 5 or 10 μL of medium was removed and 5 μL of adavosertib (to a final concentration of 1 or 10 μM) or ceralasertib (to a final concentration of 200 or 2000 μM), followed by incubation for 2 h.
In the H460 cell proliferation inhibition assays, adavosertib was added to final concentrations of 3 μM and 30 μM, and ceralasertib was added to final concentrations of 2 μM, 20 µM and 1000 μM.

[2] = tested on: HT29 cell line; experiment: HT29 cell line proliferation inhibition assay under normoxia and hypoxia (CTG); format: cell-based; conditions: for additive cytotoxic effect in combination therapy with adavosertib / additive cytotoxic effect in combination therapy with ceralasertib: HT29 (p53-deficient); for Ratio single/combo under Hypoxia / Ratio single/combo under Normoxia / Normoxia/Hypoxia Ratio: HT29; for IC50: Homo sapiens, HT-29, HT29
Description: as §1, §2, §3, §4, §5, §6, §7, §8

[3] = H460 (wild-type p53), normoxia or hypoxia

Compound: Cn1c(COP(=O)(NCCBr)NCCBr)cnc1[N+](=O)[O-] [TH-302]
- additive cytotoxic effect in combination therapy with adavosertib [1, 3]: did not exhibit any significant additive cytotoxic effects
- additive cytotoxic effect in combination therapy with ceralasertib [1, 3]: did not exhibit any significant additive cytotoxic effects
- Ratio combo/single under Normoxia ([1]; H460, 2 μM ceralasertib): 1.07
- Ratio single/combo under Hypoxia ([1]; H460, 2 μM ceralasertib): 1.71
- Ratio single/combo under Hypoxia ([1]; H460, 3 μM adavosertib): 1.56
- Ratio single/combo under Normoxia ([1]; H460, 3 μM adavosertib): 1.12
- Ratio single/combo under Hypoxia ([1]; H460, 20 μM ceralasertib): 1.49
- Ratio single/combo under Normoxia ([1]; H460, 20 μM ceralasertib): 1.05
- Ratio single/combo under Hypoxia ([1]; H460, 30 μM adavosertib): 2.14
- Ratio single/combo under Hypoxia ([1]; H460, 1000 μM ceralasertib): >6.17
- Ratio single/combo under Normoxia ([1]; H460, 1000 μM ceralasertib): 1.36
- Normoxia/Hypoxia Ratio ([1]; H460, monotherapy, Table 17): 824.83
- Normoxia/Hypoxia Ratio ([1]; H460, monotherapy, Table 19): 1737.84
- Normoxia/Hypoxia Ratio ([1]; H460, with 2 μM ceralasertib): 3190.74
- Normoxia/Hypoxia Ratio ([1]; H460, with 3 μM adavosertib): 1448.06
- Normoxia/Hypoxia Ratio ([1]; H460, with 20 μM ceralasertib): 2464.52
- Normoxia/Hypoxia Ratio ([1]; H460, with 30 μM adavosertib): 1518.50
- Normoxia/Hypoxia Ratio ([1]; H460, with 1000 μM ceralasertib): >7853.33
- IC50 ([1]; monotherapy, hypoxia, adavosertib series (Table 17)): 0.0255 µM
- IC50 ([1]; monotherapy, hypoxia, ceralasertib series (Table 19)): 0.0185 µM
- IC50 ([1]; monotherapy, normoxia, adavosertib series (Table 17)): 21 µM
- IC50 ([1]; monotherapy, normoxia, ceralasertib series (Table 19)): 32.1 µM
- IC50 ([1]; with 2 μM ceralasertib, hypoxia): 0.0108 µM
- IC50 ([1]; with 2 μM ceralasertib, normoxia): 34.5 µM
- IC50 ([1]; with 3 μM adavosertib, hypoxia): 0.0163 µM
- IC50 ([1]; with 3 μM adavosertib, normoxia): 23.6 µM
- IC50 ([1]; with 20 μM ceralasertib, hypoxia): 0.0124 µM
- IC50 ([1]; with 20 μM ceralasertib, normoxia): 30.6 µM
- IC50 ([1]; with 30 μM adavosertib, hypoxia): 0.0119 µM
- IC50 ([1]; with 30 μM adavosertib, normoxia): 18.1 µM
- IC50 ([1]; with 1000 μM ceralasertib, hypoxia): < 0.003 µM
- IC50 ([1]; with 1000 μM ceralasertib, normoxia): 23.6 µM
- additive cytotoxic effect in combination therapy with adavosertib ([2]; adavosertib at a high concentration, hypoxia): significant additive cytotoxic effect
- additive cytotoxic effect in combination therapy with ceralasertib ([2]; ceralasertib at a high concentration, hypoxia): significant additive cytotoxic effect
- additive cytotoxic effect in combination therapy with adavosertib ([2]; normoxia): did not exhibit any significant additive cytotoxic effects
- additive cytotoxic effect in combination therapy with ceralasertib ([2]; normoxia): did not exhibit any significant additive cytotoxic effects
- Ratio single/combo under Hypoxia ([2]; 1 μM adavosertib): 2.49
- Ratio single/combo under Normoxia ([2]; 1 μM adavosertib): 2.41
- Ratio single/combo under Hypoxia ([2]; 10 μM adavosertib): 8.68
- Ratio single/combo under Normoxia ([2]; 10 μM adavosertib): 6.57
- Ratio single/combo under Hypoxia ([2]; 200 μM ceralasertib): 7.11
- Ratio single/combo under Normoxia ([2]; 200 μM ceralasertib): 1.24
- Ratio single/combo under Hypoxia ([2]; 2000 μM ceralasertib): >44.66
- Ratio single/combo under Normoxia ([2]; 2000 μM ceralasertib): 2.77
- Normoxia/Hypoxia Ratio ([2]; monotherapy, Table 16): 74.35
- Normoxia/Hypoxia Ratio ([2]; monotherapy, Table 18): 51.62
- Normoxia/Hypoxia Ratio ([2]; with 1 μM adavosertib): 76.80
- Normoxia/Hypoxia Ratio ([2]; with 10 μM adavosertib): 98.18
- Normoxia/Hypoxia Ratio ([2]; with 200 μM ceralasertib): 294.78
- Normoxia/Hypoxia Ratio ([2]; with 2000 μM ceralasertib): >821.56
- IC50 ([2]; monotherapy, hypoxia, adavosertib series (Table 16)): 23.4 µM
- IC50 ([2]; monotherapy, hypoxia, ceralasertib series (Table 18)): 14.3 µM
- IC50 ([2]; monotherapy, normoxia, adavosertib series (Table 16)): ~1740 µM
- IC50 ([2]; monotherapy, normoxia, ceralasertib series (Table 18)): 738 µM
- IC50 ([2]; with 1 μM adavosertib, hypoxia): 9.38 µM
- IC50 ([2]; with 1 μM adavosertib, normoxia): 720 µM
- IC50 ([2]; with 10 μM adavosertib, hypoxia): 2.69 µM
- IC50 ([2]; with 10 μM adavosertib, normoxia): 264 µM
- IC50 ([2]; with 200 μM ceralasertib, hypoxia): 2.01 µM
- IC50 ([2]; with 200 μM ceralasertib, normoxia): 592 µM
- IC50 ([2]; with 2000 μM ceralasertib, hypoxia): < 0.32 µM
- IC50 ([2]; with 2000 μM ceralasertib, normoxia): 266 µM
